From patent US6420121B1, “Prevention of cell migration initiation with CMV US28 receptor antagonists” (Oregon Health Sciences University, priority 1998, dated 2002) come the findings set out here.

Assay [1] relates to US28 transfected smooth muscle cell. The experiment in a line: US28 SMC migration with PTK pathway inhibitors (FIG. 15). Format: cell-based.
A further assay has as its system HCMV infected SMCs. Description: HCMV-induced SMC migration assay (migration chamber). The class given is cell-based. The note with it: for inhibition of HCMV-induced SMC migration: SMCs infected with HCMV, FIG. 7 and FIG. 9. An excerpt: The present invention provides an assay for determining therapeutic activity of US28 receptor antagonists, comprising (a) obtaining and isolating smooth muscle cells into a first chamber of a migration device, wherein the first migration chamber comprises growth media chambers and is defined by a first side of a membrane and chamber walls, and wherein the migration device comprises a second chamber defined by the second side of the membrane and having an enclosed space; (b) infecting the smooth muscle cells with human cytomegalovirus (HCVM) containing a gene encoding the US28 receptor; (c) adding a candidate therapeutic agent to the first chamber; and (d) determining the amount of cellular migration into the second chamber, whereby inhibition of cellular migration of infected smooth muscle cells indicates therapeutic activity. Preferably, the smooth muscle cells are isolated from pulmonary arteries. Preferably, the membrane has a pore size of from about 2 to about 10 microns. Most preferably, the membrane pore size is about 3 microns. Preferably the amount of cellular migration is determined by an assay for counting the number of smooth muscle cells in the second chamber wherein the assay for counting the number of smooth muscle cells is selected from the group consisting of microscopic cell counting per unit area, radiolabeling the smooth muscle cells and counting radioactivity in the second chamber, attaching a fluorescent probe to the smooth muscle cells and measuring fluorescence within the second chamber, and combinations thereof.
SMCs are cultured in the upper chamber and infected with HCMV (preferably at or near MOI11). Only cells that are infected will migrate through a filter (preferably 3 micron) to the lower chamber. The cells in the lower chamber are counted by microscopy or labeled with a radioactive or fluorescent label.
The present invention provides an assay for determining therapeutic activity of US28 receptor antagonists, comprising (a) obtaining and isolating smooth muscle cells into a first chamber of a migration device, wherein the first migration chamber comprises growth media chambers and is defined by a first side of a membrane and chamber walls, and wherein the migration device comprises a second chamber defined by the second side of the membrane and having an enclosed space; (b) infecting the smooth muscle cells with human cytomegalovirus (HCVM) containing a gene encoding the US28 receptor; (c) adding a candidate therapeutic agent to the first chamber; and (d) determining the amount of cellular migration into the second chamber, whereby inhibition of cellular migration of infected smooth muscle cells indicates therapeutic activity. Preferably, the smooth muscle cells are isolated from pulmonary arteries. […]

Entries after “also recorded” stand apart in the source; their conditions may differ.

As to Pertussis toxin, the “inhibition of US28 SMC migration” value in assay [1] is “had no effect”.
On to `CO[C@H]1[C@@H](OC)C[C@H](C)[C@@H](OC)C2=CC(=O)C=C(NC(=O)/C(C)=C/C=C\[C@H](OC)[C@@H](OC(N)=O)/C(C)=C/[C@@H]1C)C2=O` [herbimycin A, Herbimycin A], for which the “inhibition of US28 SMC migration” value in assay [1] was “effective in inhibiting US28 transfected smooth muscle cell migration”.
Take `C[C@@H]1C[C@@H]([C@H](O)CC2CC(=O)NC(=O)C2)C(=O)[C@@H](C)C1` [cyclohexamide]: the “inhibition of HCMV-induced SMC migration” value with HCMV infected SMCs is given as “blocked”.
For PDGF, the “induction of cell migration in SMCs” value with HCMV infected SMCs (SMCs treated with PDGF, compared with HCMV infection, FIG. 7) is on record as “did not cause cell migration in SMCs to nearly the extent as HCMV infection”.
Take `O=C(O)P(=O)(O)O` [foscarnet]: the “inhibition of HCMV-induced SMC migration” value in the assay on HCMV infected SMCs was “did not inhibit SMC migration; also recorded: did not inhibit migration of infected smooth muscle cells”.

B1: RANTES: C-C chemokine, US28 receptor ligand (protein, UniProt P13501 24-91, looked up)
C-C motif chemokine 5: SPYSSDTTPCCFAYIARPLPRAHIKEYFYTSGKCSNPAVVFVTRKNRQVCANPEKKWVREYINSLEMS
For the molecule B1, in the assay with HCMV infected SMCs (HCMV-GFP-infected SMCs, FIG. 12), the “SMC migration on addition of chemokine” value is recorded as “increased SMC migration in a dose-dependent manner”.
